Tests used:
Assay in all cases: relative viability (nuclei count vs DMSO), 5 days (fraction); higher = more cells survive
HCC-15 = test system: HCC-15
Method in brief: (§1)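 Lung cancer cell lines were seeded in 1536-well plates and dosed by pin tool the next day, with either a single drug or a fixed anchor-drug dose combined with five library-drug doses (not always all listed) spaced in √10 steps. Five days later, one step fixed the cells and stained their nuclei (final 0.05% Triton X-100, 1% formaldehyde, 1 ug/ml Hoechst), and nuclei were counted on 4× images. Relative viability is the nuclei count in treated wells divided by the count in vehicle wells, and each value is the median of duplicate plates.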

NCI-H2170 = test system: NCI-H2170
Method in brief: as §1

NCI-H1734 = test system: NCI-H1734
Method in brief: as §1

EPLC-272H = test system: EPLC-272H
Method in brief: as §1

NCI-H441 = test system: NCI-H441
Method in brief: as §1

NCI-H647 = test system: NCI-H647
Method in brief: as §1

NCI-H2023 = test system: NCI-H2023
Method in brief: as §1

NCI-H1563 = test system: NCI-H1563
Method in brief: as §1

LOU-NH91 = test system: LOU-NH91
Method in brief: as §1

NCI-H3122 = test system: NCI-H3122
Method in brief: as §1

NCI-H520 = test system: NCI-H520
Method in brief: as §1

UMC-11 = test system: UMC-11
Method in brief: as §1

NCI-H1793 = test system: NCI-H1793
Method in brief: as §1

NCI-H322M = test system: NCI-H322M
Method in brief: as §1

NCI-H2405 = test system: NCI-H2405
Method in brief: as §1

NCI-H1650 = test system: NCI-H1650
Method in brief: as §1

PC-14 = test system: PC-14
Method in brief: as §1

H3255 = test system: H3255
Method in brief: as §1

SW 900 = test system: SW 900
Method in brief: as §1

NCI-H2347 = test system: NCI-H2347
Method in brief: as §1

201T = test system: 201T
Method in brief: as §1

COR-L23 = test system: COR-L23
Method in brief: as §1

In the case of `COc1cc2nccc(Oc3ccc(NC(=O)Nc4cc(C)on4)c(Cl)c3)c2cc1OC` [Tivozanib] + N=C(N)NC(=N)NCCc1ccccc1 [Phenformin] (partner 250 µM), the relative viability (HCC-15; first compound 0.005 µM) is reported as 0.421, the relative viability (HCC-15; first compound 0.01581 µM) is reported as 0.476 and the relative viability (HCC-15; first compound 0.05 µM) is reported as 0.5. The relative viability (HCC-15; first compound 0.1581 µM) was 0.581, the relative viability (HCC-15; first compound 0.5 µM) was 0.426 and the relative viability (NCI-H2170; first compound 0.005 µM) was 0.413. For the same compound, the relative viability (NCI-H2170; first compound 0.01581 µM) was 0.42, the relative viability (NCI-H2170; first compound 0.05 µM) was 0.395 and the relative viability (NCI-H2170; first compound 0.1581 µM) was 0.424. The relative viability (NCI-H2170; first compound 0.5 µM) was 0.421, the relative viability (NCI-H1734; first compound 0.005 µM) was 0.343 and the relative viability (NCI-H1734; first compound 0.01581 µM) was 0.365. It also gave a relative viability (NCI-H1734; first compound 0.05 µM) of 0.371, a relative viability (NCI-H1734; first compound 0.1581 µM) of 0.362 and a relative viability (NCI-H1734; first compound 0.5 µM) of 0.383. For the same compound, the relative viability (EPLC-272H; first compound 0.005 µM) was 0.271, the relative viability (EPLC-272H; first compound 0.01581 µM) was 0.355 and the relative viability (EPLC-272H; first compound 0.05 µM) was 0.359. It also gave a relative viability (EPLC-272H; first compound 0.1581 µM) of 0.314, a relative viability (EPLC-272H; first compound 0.5 µM) of 0.239 and a relative viability (NCI-H441; first compound 0.005 µM) of 0.797. It also gave a relative viability (NCI-H441; first compound 0.01581 µM) of 0.782, a relative viability (NCI-H441; first compound 0.05 µM) of 0.823 and a relative viability (NCI-H441; first compound 0.1581 µM) of 0.881. It also gave a relative viability (NCI-H441; first compound 0.5 µM) of 0.735, a relative viability (NCI-H647; first compound 0.005 µM) of 0.538 and a relative viability (NCI-H647; first compound 0.01581 µM) of 0.457. For the same compound, the relative viability (NCI-H647; first compound 0.05 µM) was 0.473, the relative viability (NCI-H647; first compound 0.1581 µM) was 0.469 and the relative viability (NCI-H647; first compound 0.5 µM) was 0.497. The relative viability (NCI-H2023; first compound 0.005 µM) was 0.408, the relative viability (NCI-H2023; first compound 0.01581 µM) was 0.421 and the relative viability (NCI-H2023; first compound 0.05 µM) was 0.426. It also gave a relative viability (NCI-H2023; first compound 0.1581 µM) of 0.43, a relative viability (NCI-H2023; first compound 0.5 µM) of 0.377 and a relative viability (NCI-H1563; first compound 0.005 µM) of 0.602. For the same compound, the relative viability (NCI-H1563; first compound 0.01581 µM) was 0.634, the relative viability (NCI-H1563; first compound 0.05 µM) was 0.696 and the relative viability (NCI-H1563; first compound 0.1581 µM) was 0.735. For the same compound, the relative viability (NCI-H1563; first compound 0.5 µM) was 0.666, the relative viability (LOU-NH91; first compound 0.005 µM) was 0.65 and the relative viability (LOU-NH91; first compound 0.01581 µM) was 0.667. For the same compound, the relative viability (LOU-NH91; first compound 0.05 µM) was 0.748, the relative viability (LOU-NH91; first compound 0.1581 µM) was 0.654 and the relative viability (LOU-NH91; first compound 0.5 µM) was 0.676. For the same compound, the relative viability (NCI-H3122; first compound 0.005 µM) was 0.376, the relative viability (NCI-H3122; first compound 0.01581 µM) was 0.419 and the relative viability (NCI-H3122; first compound 0.05 µM) was 0.383. For the same compound, the relative viability (NCI-H3122; first compound 0.1581 µM) was 0.361, the relative viability (NCI-H3122; first compound 0.5 µM) was 0.344 and the relative viability (NCI-H520; first compound 0.005 µM) was 0.57. The relative viability (NCI-H520; first compound 0.01581 µM) was 0.539, the relative viability (NCI-H520; first compound 0.05 µM) was 0.631 and the relative viability (NCI-H520; first compound 0.1581 µM) was 0.311. For the same compound, the relative viability (NCI-H520; first compound 0.5 µM) was 0.348, the relative viability (UMC-11; first compound 0.005 µM) was 0.324 and the relative viability (UMC-11; first compound 0.01581 µM) was 0.332. For the same compound, the relative viability (UMC-11; first compound 0.05 µM) was 0.329, the relative viability (UMC-11; first compound 0.5 µM) was 0.25 and the relative viability (NCI-H1793; first compound 0.005 µM) was 0.35. The relative viability (NCI-H1793; first compound 0.01581 µM) was 0.352, the relative viability (NCI-H1793; first compound 0.05 µM) was 0.419 and the relative viability (NCI-H1793; first compound 0.1581 µM) was 0.309. The relative viability (NCI-H1793; first compound 0.5 µM) was 0.335, the relative viability (NCI-H322M; first compound 0.005 µM) was 0.721 and the relative viability (NCI-H322M; first compound 0.01581 µM) was 0.82. For the same compound, the relative viability (NCI-H322M; first compound 0.05 µM) was 0.776, the relative viability (NCI-H322M; first compound 0.1581 µM) was 0.689 and the relative viability (NCI-H322M; first compound 0.5 µM) was 0.655. The relative viability (NCI-H2405; first compound 0.005 µM) was 0.418, the relative viability (NCI-H2405; first compound 0.01581 µM) was 0.401 and the relative viability (NCI-H2405; first compound 0.05 µM) was 0.436. It also gave a relative viability (NCI-H2405; first compound 0.1581 µM) of 0.373, a relative viability (NCI-H2405; first compound 0.5 µM) of 0.375 and a relative viability (NCI-H1650; first compound 0.005 µM) of 0.454. For the same compound, the relative viability (NCI-H1650; first compound 0.01581 µM) was 0.515, the relative viability (NCI-H1650; first compound 0.05 µM) was 0.486 and the relative viability (NCI-H1650; first compound 0.1581 µM) was 0.497. The relative viability (NCI-H1650; first compound 0.5 µM) was 0.353, the relative viability (PC-14; first compound 0.005 µM) was 0.443 and the relative viability (PC-14; first compound 0.01581 µM) was 0.656. For the same compound, the relative viability (PC-14; first compound 0.05 µM) was 0.588, the relative viability (PC-14; first compound 0.1581 µM) was 0.611 and the relative viability (PC-14; first compound 0.5 µM) was 0.501. For the same compound, the relative viability (H3255; first compound 0.005 µM) was 0.332, the relative viability (H3255; first compound 0.01581 µM) was 0.333 and the relative viability (H3255; first compound 0.05 µM) was 0.354. The relative viability (H3255; first compound 0.1581 µM) was 0.339, the relative viability (H3255; first compound 0.5 µM) was 0.351 and the relative viability (SW 900; first compound 0.005 µM) was 0.554. The relative viability (SW 900; first compound 0.01581 µM) was 0.71, the relative viability (SW 900; first compound 0.05 µM) was 0.731 and the relative viability (SW 900; first compound 0.1581 µM) was 0.492. For the same compound, the relative viability (SW 900; first compound 0.5 µM) was 0.524, the relative viability (NCI-H2347; first compound 0.01581 µM) was 0.484 and the relative viability (NCI-H2347; first compound 0.05 µM) was 0.512. It also gave a relative viability (NCI-H2347; first compound 0.5 µM) of 0.438, a relative viability (201T; first compound 0.005 µM) of 0.447 and a relative viability (201T; first compound 0.01581 µM) of 0.405. For the same compound, the relative viability (201T; first compound 0.05 µM) was 0.423, the relative viability (201T; first compound 0.1581 µM) was 0.445 and the relative viability (201T; first compound 0.5 µM) was 0.469. For the same compound, the relative viability (COR-L23; first compound 0.005 µM) was 0.427, the relative viability (COR-L23; first compound 0.01581 µM) was 0.433 and the relative viability (COR-L23; first compound 0.05 µM) was 0.446. For the same compound, the relative viability (COR-L23; first compound 0.1581 µM) was 0.43 and the relative viability (COR-L23; first compound 0.5 µM) was 0.409.
